Reference: ChEMBL document CHEMBL5143733, “Discovery of (E)-3-(3-((2-Cyano-4'-dimethylaminobiphenyl-4-ylmethyl)cyclohexanecarbonylamino)-5-fluorophenyl)acrylic Acid Methyl Ester, an Intestine-Specific, FXR Partial Agonist for the Treatment of Nonalcoholic Steatohepatitis” (J Med Chem, 2022)
Activity calls are given as the source filed them. The rule behind the calls is not given here.

Tests used:
[1] = target: Peroxisome proliferator-activated receptor delta (Homo sapiens, UniProt Q03181); experiment: Agonist activity at human PPAR-delta expressed in CHO-K1 cells by PathHunter assay; type: cell-based
Sequence of Peroxisome proliferator-activated receptor delta (Q03181 whole entry): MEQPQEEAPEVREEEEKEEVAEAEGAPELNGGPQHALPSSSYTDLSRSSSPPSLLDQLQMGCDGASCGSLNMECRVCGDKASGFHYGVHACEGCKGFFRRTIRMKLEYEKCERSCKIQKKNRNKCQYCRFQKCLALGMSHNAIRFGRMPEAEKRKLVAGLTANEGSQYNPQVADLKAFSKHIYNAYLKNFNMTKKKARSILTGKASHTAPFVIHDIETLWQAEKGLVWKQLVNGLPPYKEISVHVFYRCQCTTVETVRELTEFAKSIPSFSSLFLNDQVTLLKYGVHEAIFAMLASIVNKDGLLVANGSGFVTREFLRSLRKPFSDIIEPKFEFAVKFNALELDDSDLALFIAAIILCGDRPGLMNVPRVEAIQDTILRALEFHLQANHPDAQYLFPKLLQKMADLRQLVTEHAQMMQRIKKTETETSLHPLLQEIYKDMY

[2] = Toxicity in CDAHFD-induced nonalcoholic steatohepatitis C57BL/6J mouse model assessed as increase in liver wet weight at 80 mg/kg, po administered daily for 4 weeks […]; type: organism-based; conditions: in vivo, 672 h
[3] = Stability in Sprague-Dawley rat plasma at 80 mg/kg, po measured after 5 hrs by RP-HPLC analysis; type: ADME, organism-based; conditions: in vivo
[4] = target: T1, Bile acid receptor (Mus musculus) (UniProt Q60641); experiment: In vivo activation of FXR in CDAHFD-induced nonalcoholic steatohepatitis C57BL/6J mouse model assessed as induction of SHP gene expression at 80 mg/kg, po administered daily for 4 weeks; type: functional, organism-based
T1 sequence (whole entry): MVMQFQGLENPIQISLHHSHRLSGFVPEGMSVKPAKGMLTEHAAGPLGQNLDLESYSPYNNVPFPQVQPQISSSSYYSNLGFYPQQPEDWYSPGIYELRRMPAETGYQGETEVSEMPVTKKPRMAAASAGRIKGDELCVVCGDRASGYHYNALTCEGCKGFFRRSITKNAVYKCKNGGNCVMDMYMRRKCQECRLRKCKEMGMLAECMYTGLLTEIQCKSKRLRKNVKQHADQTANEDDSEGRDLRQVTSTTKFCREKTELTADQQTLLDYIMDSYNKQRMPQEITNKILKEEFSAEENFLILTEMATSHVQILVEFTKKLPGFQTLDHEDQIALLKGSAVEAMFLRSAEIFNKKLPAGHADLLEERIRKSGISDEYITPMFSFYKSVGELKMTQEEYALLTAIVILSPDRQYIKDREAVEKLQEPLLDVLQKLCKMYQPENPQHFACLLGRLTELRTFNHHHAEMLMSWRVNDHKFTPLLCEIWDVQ

[5] = target: T2, Bile acid receptor (Homo sapiens) (UniProt Q96RI1); experiment: Partial agonist activity at FXR (unknown origin) expressed in CHO-K1 cells coexpressed with beta-galactosidase incubated for 3 to 16 hrs by PathHunter chemiluminescence based assay relative to GW4064; type: cell-based; conditions: filed as partial agonist, time 3-16 hrs
T2 sequence (whole entry): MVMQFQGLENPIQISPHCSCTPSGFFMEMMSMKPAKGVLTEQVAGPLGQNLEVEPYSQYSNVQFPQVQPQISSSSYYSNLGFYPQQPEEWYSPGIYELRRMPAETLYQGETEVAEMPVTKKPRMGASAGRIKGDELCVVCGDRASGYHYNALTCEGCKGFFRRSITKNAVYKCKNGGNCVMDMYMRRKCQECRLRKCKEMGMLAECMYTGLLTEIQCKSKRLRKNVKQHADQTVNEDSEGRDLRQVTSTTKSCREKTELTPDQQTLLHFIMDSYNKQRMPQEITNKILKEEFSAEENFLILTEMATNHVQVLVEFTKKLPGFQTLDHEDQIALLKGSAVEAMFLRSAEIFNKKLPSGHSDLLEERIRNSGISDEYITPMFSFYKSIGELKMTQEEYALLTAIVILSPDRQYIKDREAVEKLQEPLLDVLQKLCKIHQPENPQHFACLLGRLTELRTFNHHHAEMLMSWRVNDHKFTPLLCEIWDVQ

[6] = target: T1, Bile acid receptor (Mus musculus); experiment: In vivo activation of FXR in […]-induced nonalcoholic steatohepatitis C57BL/6J mouse model assessed as improved glucose tolerance measured up to 120 mins by glucose tolerance test; type: functional
[7] = Drug metabolism in Sprague-Dawley rat plasma assessed as retention time of unidentified major metabolite at 5 mg/kg, iv upto 1 hr by RP-HPLC analysis; type: ADME, organism-based; conditions: in vivo
[8] = test system: Mus musculus; experiment: Antifibrotic activity in CDAHFD-induced nonalcoholic steatohepatitis C57BL/6J mouse model assessed as reduction in COL1A1 gene expression at 80 mg/kg, po administered daily for 4 weeks; type: functional, organism-based
[9] = AUClast in Sprague-Dawley rat at 80 mg/kg, po measured up to 24 hrs by HPLC analysis; type: ADME, organism-based; design: dose 80 mg/kg, time < 24 hrs, route po; conditions: in vivo
[10] = Toxicity in CDAHFD-induced nonalcoholic steatohepatitis C57BL/6J mouse model assessed as change in body weight at 80 mg/kg, po administered daily for 4 weeks; type: organism-based; conditions: in vivo, 672 h
[11] = target: T1, Bile acid receptor (Mus musculus); experiment: In vivo activation of FXR in CDAHFD-induced nonalcoholic steatohepatitis C57BL/6J mouse model assessed as induction of OST-alpha gene expression at 80 mg/kg, po administered daily for 4 weeks; type: functional, organism-based
[12] = Half life in Sprague-Dawley rat at 5 mg/kg, iv measured up to 24 hrs by HPLC analysis; type: ADME, organism-based; conditions: in vivo
[13] = target: T1, Bile acid receptor (Mus musculus); experiment: In vivo activation of FXR in CDAHFD-induced nonalcoholic steatohepatitis C57BL/6J mouse model assessed as induction of FGF15 gene expression at 80 mg/kg, po administered daily for 4 weeks; type: functional, organism-based
[14] = Oral bioavailability in Sprague-Dawley rat at 80 mg/kg measured up to 24 hrs by HPLC analysis; type: ADME, organism-based; conditions: in vivo
[15] = Clearance in Sprague-Dawley rat at 5 mg/kg, iv measured up to 24 hrs by HPLC analysis; type: ADME, organism-based; conditions: in vivo
[16] = AUClast in Sprague-Dawley rat at 5 mg/kg, iv measured up to 24 hrs by HPLC analysis; type: ADME, organism-based; design: time < 24 hrs, dose 5 mg/kg, route iv; conditions: in vivo, 24 h
[17] = target: T1, Bile acid receptor (Mus musculus); experiment: In vivo activation of FXR in CDAHFD-induced nonalcoholic steatohepatitis C57BL/6J mouse model assessed as reduction in liver fibrosis at 80 mg/kg, po administered daily for 4 weeks by picrosirius red staining method; type: functional, organism-based
[18] = Toxicity in CDAHFD-induced nonalcoholic steatohepatitis C57BL/6J mouse model assessed as change in amount of food intake at 80 mg/kg, po administered daily for 4 weeks; type: organism-based; conditions: in vivo, 672 h
[19] = target: T1, Bile acid receptor (Mus musculus); experiment: In vivo activation of FXR in CDAHFD-induced nonalcoholic steatohepatitis C57BL/6J mouse model assessed as induction of IBABP gene expression at 80 mg/kg, po administered daily for 4 weeks; type: functional, organism-based
[20] = Toxicity in CDAHFD-induced nonalcoholic steatohepatitis C57BL/6J mouse model assessed as reduction in serum AST level at 80 mg/kg, po administered daily for 4 weeks; type: organism-based; conditions: in vivo, 672 h
[21] = test system: Mus musculus; experiment: Antifibrotic activity in CDAHFD-induced nonalcoholic steatohepatitis C57BL/6J mouse model assessed as reduction in TIMP-1 gene expression at 80 mg/kg, po administered daily for 4 weeks; type: functional, organism-based
[22] = Drug metabolism in Sprague-Dawley rat plasma assessed as (E)-3-(3-((2-Cyano-4'-dimethylaminobiphenyl-4-ylmethyl)-cyclohexanecarbonylamino)-5-fluorophenyl)acrylic Acid metabolite formation at 5 mg/kg, iv measured up to 20 to 60 mins by RP-HPLC analysis; type: ADME, organism-based; conditions: in vivo, time 20-60 min
[23] = Volume of distribution at steady state in Sprague-Dawley rat at 5 mg/kg, iv measured up to 24 hrs by HPLC analysis; type: ADME, organism-based; conditions: in vivo, read-out: Vdss
[24] = test system: Mus musculus; experiment: Antiinflammatory activity in CDAHFD-induced nonalcoholic steatohepatitis C57BL/6J mouse model assessed as reduction in IL-1beta gene expression at 80 mg/kg, po administered daily for 4 weeks; type: functional, organism-based

Q: Which EC50 [1] does the source give for `CCCc1c(OCCCOc2ccc(OCC(=O)O)cc2)ccc(C(C)=O)c1O` here?
A: 6 nM

Q: For `COC(=O)/C=C/c1cc(F)cc(N(Cc2ccc(-c3ccc(N(C)C)cc3)c(C#N)c2)C(=O)C2CCCCC2)c1`, which Activity [2] is on record?
A: Non-Toxic

Q: What about the Stability [3] of the same molecule?
A: Unstable

Q: What about the Activity [4] of the same molecule?
A: Active

Q: And the Emax [5]?
A: 53%

Q: And the Activity [6]?
A: Active

Q: And the Retention_time [7]?
A: 5.25 min

Q: What about the Activity [8] of the same molecule?
A: Active

Q: What about the AUClast [9] of the same molecule?
A: 1500 ng·h/mL

Q: What about the Activity [10] of the same molecule?
A: Non-Toxic

Q: What about the Activity [11] of the same molecule?
A: Active

Q: What about the half-life [12] of the same molecule?
A: 4.8 min

Q: What about the Activity [13] of the same molecule?
A: Active

Q: And the F [14]?
A: 4%

Q: What about the clearance [15] of the same molecule?
A: 93.3 mL/min/kg

Q: And the AUClast [16]?
A: 900 ng·h/mL

Q: And the Activity [17]?
A: Active

Q: And the Activity [18]?
A: Non-Toxic

Q: And the Activity [19]?
A: Active

Q: What about the Activity [20] of the same molecule?
A: Non-Toxic

Q: And the Activity [21]?
A: Active

Q: What about the Drug metabolism [22] of the same molecule?
A: Metabolite_Detected

Q: What about the Vd [23] of the same molecule?
A: 0.7 L/kg

Q: What about the Activity [24] of the same molecule?
A: Active
